The record followed here is patent publication USRE47739E1, “2-(pyridin-2-ylamino)-pyrido[2,3-D]pyrimidin-7-ones” (Warner-Lambert Company LLC, priority 2002, dated 2019).

Where a name gives a salt, the structure may show the parent alone.

One experiment concerns the target Cdk4/Cyclin D (Homo sapiens, UniProt P11802). Nature of the experiment: Assay for Inhibition of Cdk4/Cyclin D. In kind it is biochemical. The settings on record: 25 μM ATP, retinoblastoma protein substrate, 25° C., 15 minutes. How it is done:
(§1) The assays were carried out as described below.
Assay for Inhibition of Cdk4/Cyclin D
The Cdk4 enzyme assay for IC50 determination and kinetic evaluation is performed as follows. 96-well filter plates (Millipore MADVN6550) are used. […] Buffer A containing excess EDTA was used to determine the level of background ^32P in the absence of enzyme activity. All components except the ATP are added to the wells, and the plate is placed on a plate mixer for 2 minutes. The reaction is started by adding [^32P]ATP, and the plate is incubated at 25° C. for 15 minutes. The reaction is terminated by addition of 0.1 mL 20% trichloroacetic acid (TCA). The plate is kept at 4° C. for at least 1 hour to allow the substrate to precipitate. The wells are then washed five times with 0.2 mL 10% TCA, and ^32P incorporation is determined with a beta plate counter (Wallac Inc., Gaithersburg, Md.).

The target of experiment [1] is FGF receptor (FGFr) tyrosine kinase (Homo sapiens, UniProt P11362). Nature of the experiment: Assay for Inhibition of FGFr. In kind it is biochemical. The following applies: 50 μM ATP, Poly (4:1) glutamate-tyrosine substrate, 25° C. How it is done: as §1
FGF receptor (FGFr) tyrosine kinase, sequence (P11362 22-822): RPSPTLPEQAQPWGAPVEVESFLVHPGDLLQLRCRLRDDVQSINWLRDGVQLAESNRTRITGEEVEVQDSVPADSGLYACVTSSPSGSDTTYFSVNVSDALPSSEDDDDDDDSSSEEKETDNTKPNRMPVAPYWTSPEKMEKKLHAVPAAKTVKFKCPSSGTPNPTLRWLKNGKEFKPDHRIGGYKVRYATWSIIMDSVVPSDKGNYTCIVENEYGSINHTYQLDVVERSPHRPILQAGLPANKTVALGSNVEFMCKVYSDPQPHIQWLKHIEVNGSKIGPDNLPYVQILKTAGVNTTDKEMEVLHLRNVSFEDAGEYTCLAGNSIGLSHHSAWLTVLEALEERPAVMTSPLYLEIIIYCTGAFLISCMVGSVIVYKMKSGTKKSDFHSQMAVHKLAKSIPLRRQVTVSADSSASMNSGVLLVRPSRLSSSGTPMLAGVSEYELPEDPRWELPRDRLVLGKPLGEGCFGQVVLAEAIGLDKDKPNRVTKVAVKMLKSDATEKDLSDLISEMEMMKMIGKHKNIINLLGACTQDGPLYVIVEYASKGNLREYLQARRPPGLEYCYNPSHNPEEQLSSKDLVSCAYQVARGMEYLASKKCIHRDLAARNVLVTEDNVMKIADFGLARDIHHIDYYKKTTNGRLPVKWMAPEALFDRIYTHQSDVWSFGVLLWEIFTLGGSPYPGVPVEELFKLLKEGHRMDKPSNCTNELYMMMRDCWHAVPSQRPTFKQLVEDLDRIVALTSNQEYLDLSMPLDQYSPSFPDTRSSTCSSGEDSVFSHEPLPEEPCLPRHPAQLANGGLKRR
Assay for Inhibition of FGFr
For FGF receptor (FGFr) tyrosine kinase assays 96-well plates (100 μL/incubation/well), and conditions are optimized to measure the incorporation of ^32P from [γ^32P]ATP into a glutamate-tyrosine co-polymer substrate. Briefly, to each well is added 82.5 μL incubation buffer B (25 mM Hepes (pH 7.0), 150 mM NaCl, 0.1% Triton X-100, 0.2 mM PMSF, 0.2 mM Na3VO4, 10 mM MnCl2) and 750 μg/mL Poly (4:1) glutamate-tyrosine followed by 2.5 μL of the test compound in buffer B and 5 μL of a 7.5 μg/μL FGFr solution to initiate the reaction. Following a 10-minute incubation at 25° C., […] [γ^32P]ATP (0.4 μCi plus 50 μM ATP) is added to each well, and samples are incubated for an additional 10 minutes at 25° C. The reaction is terminated by the addition of 100 μL 30% trichloroacetic acid (TCA) containing 20 mM sodium pyrophosphate and precipitation of material onto glass fiber mats (Wallac). […] Nonspecific activity is defined as radioactivity retained on the filters following incubation of samples with buffer alone (no enzyme). Specific enzymatic activity (enzyme plus buffer) is defined as total activity minus nonspecific activity.

Cdk4/Cyclin D, sequence (P11802 whole entry, species assumed): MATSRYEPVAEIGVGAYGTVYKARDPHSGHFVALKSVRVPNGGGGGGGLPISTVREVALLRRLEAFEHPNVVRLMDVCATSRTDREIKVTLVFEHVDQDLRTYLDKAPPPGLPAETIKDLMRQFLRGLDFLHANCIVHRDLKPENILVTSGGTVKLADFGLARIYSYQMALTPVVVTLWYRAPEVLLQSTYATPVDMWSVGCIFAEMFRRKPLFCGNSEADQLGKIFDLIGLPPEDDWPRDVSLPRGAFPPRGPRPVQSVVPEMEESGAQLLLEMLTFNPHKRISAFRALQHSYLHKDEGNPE
Cdk4/Cyclin D, sequence (P24385 whole entry partner, species assumed): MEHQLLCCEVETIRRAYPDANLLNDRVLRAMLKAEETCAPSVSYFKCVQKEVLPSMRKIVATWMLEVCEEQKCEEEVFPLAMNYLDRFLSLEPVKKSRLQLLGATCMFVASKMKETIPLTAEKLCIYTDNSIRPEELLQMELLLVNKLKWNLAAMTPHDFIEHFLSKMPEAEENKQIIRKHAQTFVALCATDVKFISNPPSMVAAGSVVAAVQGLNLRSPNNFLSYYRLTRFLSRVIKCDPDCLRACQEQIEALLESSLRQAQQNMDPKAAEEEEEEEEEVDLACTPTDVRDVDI

As to `CC(=O)c1c(C)c2cnc(Nc3ccc(N4CCN(C)CC4)cn3)nc2n(C2CCCC2)c1=O` [Example 72, 6-Acetyl-8-cyclopentyl-5-methyl-2-[5-(4-methyl-piperazin-1-yl)-pyridin-2-ylamino]-8H-pyrido[2,3-d]pyrimidin-7-one], it took 0.005 µM to reach half-maximal inhibition against Cdk4/Cyclin D (IC50). `CC(=O)c1c(C)c2cnc(Nc3ccc(N4CC(C)NC(C)C4)cn3)nc2n(C2CCCC2)c1=O` (stereo not shown) [Example 95, 6-Acetyl-8-cyclopentyl-2-[5-(3,5-dimethyl-piperazin-1-yl)-pyridin-2-ylamino]-5-methyl-8H-pyrido[2,3-d]pyrimidin-7-one]: the concentration for half-maximal inhibition (IC50) is 0.037 µM at Cdk4/Cyclin D and greater than 5 µM in experiment [1].

Regarding `CC(C)COc1cc2cnc(Nc3ccc(N4CCNCC4)cn3)nc2n(C2CCCC2)c1=O` [Example 22, 8-Cyclopentyl-6-isobutoxy-2-(5-piperazin-1-yl-pyridin-2-ylamino)-8H-pyrido[2.3-d]pyrimidin-7-one hydrochloride], the IC50 against Cdk4/Cyclin D was 1.7 µM; in experiment [1], greater than 5 µM. Consider `CC(=O)c1c(C)c2cnc(Nc3ccccn3)nc2n(C2CCCC2)c1=O` [Example 82, 6-Acetyl-8-cyclopentyl-5-methyl-2-(pyridin-2-ylamino)-8H-pyrido[2,3-d]pyrimindin-7-one], for which the figures for the IC50 (against Cdk4/Cyclin D; in experiment [1]) were 0.44 µM and greater than 5 µM, respectively. On to `CN1CCC[C@H]1c1ccc(Nc2ncc3cc(Br)c(=O)n(C4CCCC4)c3n2)nc1` [Example 12, 6-Bromo-8-cyclopentyl-2-[5-((S)-1-methyl-1-pyrrolidin-2-yl)-pyridin-2-ylamino]-8H-pyrido[2,3-d]pyrimidin-7-one hydrochloride], for which the IC50 against Cdk4/Cyclin D turned out to be 0.175 µM. Turning to `CCOCCc1cc2cnc(Nc3ccc(N4CCNCC4)cn3)nc2n(C2CCCC2)c1=O` [Example 108, 8-Cyclopentyl-6-(2-ethoxy-ethyl)-2-(5-piperazin-1-yl-pyridin-2-ylamino)-8H-pyrido[2,3-d]pyrimidin-7-one], the IC50 against Cdk4/Cyclin D is 0.124 µM; in experiment [1] it was greater than 5 µM. With `O=c1c(Br)cc2cnc(Nc3ccccn3)nc2n1C1CCCCC1` [Example 13, 6-Bromo-8-cyclohexyl-2-(pyridin-2-yl-amino)-8H-pyrido[2,3-d]pyrimidin-7-one], at Cdk4/Cyclin D, the IC50 is greater than 5 µM. For the compound `CCOCc1cc2cnc(Nc3ccc(N4CCNCC4)cn3)nc2n(C2CCCC2)c1=O` [Example 116, 8-Cyclopentyl-6-ethoxymethyl-2-(5-piperazin-1-yl-pyridin-2-ylamino)-8H-pyrido[2,3-d]pyrimidin-7-one], the IC50 on Cdk4/Cyclin D was 0.018 µM; in experiment [1], greater than 5 µM. As to `Cc1c(Br)c(=O)n(C2CCCC2)c2nc(Nc3ccc(N4CCNCC4)cn3)ncc12` [Example 15, 6-Bromo-8-cyclopentyl-5-methyl-2-(5-piperizin-1-yl-pyridin-2-ylamino)-8H-pyrido[2,3-d]pyrimidin-7-one], the figures for the IC50 (against Cdk4/Cyclin D; in experiment [1]) were 0.16 µM and greater than 5 µM, respectively. Turning to `Cc1c(Br)c(=O)n(C2CCCC2)c2nc(Nc3ccc(N4CCC(O)CC4)cn3)ncc12` [Example 75, 6-Bromo-8-cyclopentyl-2-(4-hydroxy-3,4,5,6-tetrahydro-2H-[1,3′]bipyridinyl-6′-ylamino)-5-methyl-8H-pyrido[2,3-d]pyrimidin-7-one], the IC50 at Cdk4/Cyclin D is 0.074 µM; in experiment [1], greater than 5 µM.

For `CC(=O)c1c(C)c2cnc(Nc3ccc(N4CCC(N)C4)cn3)nc2n(C2CCCC2)c1=O` (stereo not shown) [Example 74, 6-Acetyl-2-[5-(3-amino-pyrrolidin-1-yl)-pyridin-2-ylamino]-8-cyclopentyl-5-methyl-8H-pyrido[2,3-d]pyrimidin-7-one], the IC50 against Cdk4/Cyclin D was 0.014 µM; in experiment [1], greater than 5 µM. In turn, `NC(=O)c1ccc(Nc2ncc3cc(Br)c(=O)n(C4CCCC4)c3n2)nc1` [Example 14] gave an IC50 against Cdk4/Cyclin D of 0.26 µM. Consider `CC(=O)c1cc2cnc(Nc3ccc(N4CCNCC4)cn3)nc2n(C2CCCC2)c1=O` [Example 33, 6-Acetyl-8-cyclopentyl-2-(5-piperazin-1-yl-pyridin-2-ylamino)-8H-pyrido[2.3-d]pyrimidin-7-one hydrochloride], for which the IC50 is 0.123 µM against Cdk4/Cyclin D and greater than 5 µM in experiment [1].

On to `COCCOCc1cc2cnc(Nc3ccc(N4CCNCC4)cn3)nc2n(C2CCCC2)c1=O` [Example 112, 8-Cyclopentyl-6-(2-methoxy-ethoxymethyl)-2-(5-piperazin-1-yl-pyridin-2-ylamino)-8H-pyrido[2,3-d]pyrimidin-7-one], for which the IC50 on Cdk4/Cyclin D is 0.031 µM; in experiment [1], greater than 5 µM. As for `Nc1cc2cnc(Nc3ccc(N4CCNCC4)cn3)nc2n(C2CCCC2)c1=O` [Example 11, 6-Amino-8-cyclopentyl-2-(5-piperazin-1-yl-pyridin-2-ylamino)-8H-pyrido[2,3-d]pyrimidin-7-one hydrochloride], the IC50 against Cdk4/Cyclin D was 0.012 µM; in experiment [1] it was 2.12 µM.

Take `CCc1cc2cnc(Nc3ccc(N4CCNCC4)cn3)nc2n(C2CCCC2)c1=O` [Example 5, 8-Cyclopentyl-6-ethyl-2-(5-piperazin-1-yl-pyridin-2-ylamino)-8H-pyrido[2,3-d]pyrimidin-7-one hydrochloride]: the figures for the concentration for half-maximal inhibition (IC50) (at Cdk4/Cyclin D; in experiment [1]) were 0.019 µM and 0.99 µM, respectively. On to `CC(=O)c1c(C)c2cnc(Nc3ccc(N4CCCCC4)cn3)nc2n(C2CCCC2)c1=O` [Example 105, 6-Acetyl-8-cyclopentyl-5-methyl-2-(3,4,5,6-tetrahydro-2H-[1,3′]bipyridinyl-6′-ylamino)-8H-pyrido[2,3-d]pyrimidin-7-one], for which the IC50 at Cdk4/Cyclin D is 0.005 µM.

Take `Cc1c(Br)c(=O)n(C2CCCC2)c2nc(Nc3ccc(N4CCCCC4)cn3)ncc12` [Example 103, 6-Bromo-8-cyclopentyl-5-methyl-2-(3,4,5,6-tetrahydro-2H-[1,3]bipyridinyl-6′-ylamino)-8H-pyrido[2,3-d]pyrimidin-7-one]: the half-inhibitory concentration (IC50) against Cdk4/Cyclin D was greater than 5 µM.

On to `CCOC(=O)c1cc2cnc(Nc3ccc(N4CCNCC4)cn3)nc2n(C2CCCC2)c1=O` [Example 7, 8-Cyclopentyl-7-oxo-2-(5-piperazin-1-yl-pyridin-2-ylamino)-7,8-dihydro-pyrido[2,3-d]pyrimidine-6-carboxylic acid ethyl ester hydrochloride], for which the half-inhibitory concentration (IC50) on Cdk4/Cyclin D turned out to be 0.595 µM. `CCOCCOc1cc2cnc(Nc3ccc(N4CCNCC4)cn3)nc2n(C2CCCC2)c1=O` [Example 53, 8-Cyclopentyl-6-(2-ethoxy-ethoxy)-2-(5-piperazin-1-yl-pyridin-2-ylamino)-8H-pyrido[2,3-d]pyrimidin-7-one]: the IC50 against Cdk4/Cyclin D is 0.036 µM; in experiment [1], greater than 5 µM.

Consider `O=c1ccc2cnc(Nc3ccc(N4CCNCC4)cn3)nc2n1C1CC1` [Example 64, 8-cyclopropyl-2-(5-piperazin-1-yl-pyridin-2-ylamino)-8H-pyrido[2,3-d]pyrimidin-7-one], for which the values for the IC50 (at Cdk4/Cyclin D; in experiment [1]) were 0.92 µM and 4.47 µM, respectively.

For the compound `Cc1c(Br)c(=O)n(C2CCCC2)c2nc(Nc3ccc(N4CC(C)NC(C)C4)cn3)ncc12` (stereo not shown) [Example 93, 6-Bromo-8-cyclopentyl-2-[5-(3,5-dimethyl-piperazin-1-yl)-pyridin-2-ylamino]-5-methyl-8H-pyrido[2,3-d]pyrimidin-7-one], the results for the IC50 (on Cdk4/Cyclin D; in experiment [1]) were 0.063 µM and greater than 5 µM, respectively. On Cdk4/Cyclin D, `CC(=O)c1c(C)c2cnc(Nc3ccc(N4CCC(O)CC4)cn3)nc2n(C2CCCC2)c1=O` [Example 77, 6-Acetyl-8-cyclopentyl-2-(4-hydroxy-3,4,5,6-tetrahydro-2H-[1,3′]bipyridinyl-6′-ylamino)-5-methyl-8H-pyrido[2,3-d]pyrimidin-7-one] came in with an IC50 of 0.019 µM.

In the case of `O=c1c(F)cc2cnc(Nc3ccc(N4CCNCC4)cn3)nc2n1C1CCCC1` [Example 18, 8-Cyclopentyl-6-fluoro-2-(5-piperazin-1-yl-pyridin-2-ylamino)-8H-pyrido[2,3-d]pyrimidin-7-one hydrochloride], at Cdk4/Cyclin D, 0.051 µM corresponded to half-maximal inhibition (IC50). As to `Cc1cc(=O)n(C2CCCC2)c2nc(Nc3ccc(N4CCNCC4)cn3)ncc12` [Example 84, 8-Cyclopentyl-5-methyl-2-(5-piperazin-4-yl-pyridin-2-ylamino)-8H-pyrido[2,3-d]pyrimidin-7-one], the IC50 against Cdk4/Cyclin D is 0.58 µM; in experiment [1], greater than 5 µM.

`CC(=O)c1c(C)c2cnc(Nc3ccc(N4CCOCC4)cn3)nc2n(C2CCCC2)c1=O` [Example 100, 6-Acetyl-8-cyclopentyl-5-methyl-2-(5-morpholin-4-yl-pyridin-2-ylamino)-8H-pyrido[2,3-d]pyrimidin-7-one]: the 50% inhibitory concentration (IC50) against Cdk4/Cyclin D is 0.004 µM; in experiment [1], greater than 5 µM.

As usually defined, the IC50 is the concentration that inhibits the measured activity by half.
